Activity calls are given as the source filed them. The rule behind the calls is not given here.
Key:
[1] = system: Cystic fibrosis transmembrane conductance regulator (Homo sapiens), P13569 [F508del]; test: (§1) Corrector activity at 3xHA-tagged full-length human CFTR F508del mutant expressed in human CFBE41o- cells assessed as restoration of plasma membrane density of channel incubated for 24 hrs in presence of VX-809/N-(5-(4-fluorobenzyl)thiazol-2-yl)-2,5-dimethylfuran-3-carboxamide by ELISA; format: cell membranes; details: filed as activator, dose 10.0 µM
[2] = biological target: Cystic fibrosis transmembrane conductance regulator (Homo sapiens, UniProt P13569, F508DEL); test: as §1; format: cell membranes
[3] = system: Cystic fibrosis transmembrane conductance regulator (Homo sapiens), P13569 [F508del]; test: Corrector activity at 3xHA-tagged full-length human CFTR F508del mutant expressed in human CFBE41o- cells assessed as functional rescue of channel by measuring anion transport measured after 24 hrs in presence of VX-809/N-(5-(4-fluorobenzyl)thiazol-2-yl)-2,5-dimethylfuran-3-carboxamide by halide-sensitive YFP quenching assay relative to combination of VX-809/N-(5-(4-fluorobenzyl)thiazol-2-yl)-2,5-dimethylfuran-3-carboxamide; format: cell-based; details: filed as activator
[4] = system: Cystic fibrosis transmembrane conductance regulator (Homo sapiens), P13569 [F508del]; test: (§2) Corrector activity at 3xHA-tagged full-length human CFTR F508del mutant expressed in human CFBE41o- cells assessed as rescue of forskolin/VX-770-induced transepithelial short-circuit current measured after 24 hrs in presence of VX-809/N-(5-(4-fluorobenzyl)thiazol-2-yl)-2,5-dimethylfuran-3-carboxamide by electrophysiological method relative to wild-type CFTR activity; format: cell-based; details: filed as activator
[5] = system: Cystic fibrosis transmembrane conductance regulator (Homo sapiens), P13569 [F508del]; test: Corrector activity at 3xHA-tagged full-length human CFTR F508del mutant expressed in human CFBE41o- cells assessed as fractional plasma membrane density at 10 uM in presence of VX-809/N-(5-(4-fluorobenzyl)thiazol-2-yl)-2,5-dimethylfuran-3-carboxamide relative to forskoli-stimulated wild-type CFTR expressed in human CFBE41o- cells; format: cell membranes; details: filed as activator
[6] = system: Cystic fibrosis transmembrane conductance regulator (Homo sapiens), P13569 [F508del]; test: as §2, with “[…]” for “rescue of”, “at 10 uM” for “measured after 24 hrs”, “control” for “wild-type CFTR activity”; format: cell-based; design: scale not given: the % may be the effect or the level left; details: filed as activator
[7] = system: Cystic fibrosis transmembrane conductance regulator (Homo sapiens), P13569 [F508del]; test: Corrector activity at CFTR F508del mutant in patient-derived human HBE cells assessed as forskolin/VX-770-induced transepithelial short-circuit current in presence of VX-809/N-(5-(4-fluorobenzyl)thiazol-2-yl)-2,5-dimethylfuran-3-carboxamide by electrophysiological method (reference value: 16 %); format: cell-based; details: filed as activator
[8] = system: Cystic fibrosis transmembrane conductance regulator (Homo sapiens), P13569 [S13F]; test: Corrector activity at 3xHA-tagged full-length human CFTR S13F mutant expressed in human CFBE41o- cells assessed as restoration of plasma membrane density of channel in presence of VX-809/N-(5-(4-fluorobenzyl)thiazol-2-yl)-2,5-dimethylfuran-3-carboxamide by ELISA; format: cell membranes; details: filed as activator
[9] = system: Cystic fibrosis transmembrane conductance regulator (Homo sapiens), P13569 [S492F]; test: Corrector activity at 3xHA-tagged full-length human CFTR S492F mutant expressed in human CFBE41o- cells assessed as restoration of plasma membrane density of channel in presence of VX-809/N-(5-(4-fluorobenzyl)thiazol-2-yl)-2,5-dimethylfuran-3-carboxamide by ELISA; format: cell membranes; details: filed as activator
[10] = system: Cystic fibrosis transmembrane conductance regulator (Homo sapiens), P13569 [M1101K]; test: Corrector activity at 3xHA-tagged full-length human CFTR M1101K mutant expressed in human CFBE41o- cells assessed as restoration of plasma membrane density of channel in presence of VX-809/N-(5-(4-fluorobenzyl)thiazol-2-yl)-2,5-dimethylfuran-3-carboxamide by ELISA relative to wild-type CFTR level; format: cell membranes; details: filed as activator
[11] = system: Cystic fibrosis transmembrane conductance regulator (Homo sapiens), P13569 [N1303K]; test: Corrector activity at 3xHA-tagged full-length human CFTR N1303K mutant expressed in human CFBE41o- cells assessed as restoration of plasma membrane density of channel in presence of VX-809/N-(5-(4-fluorobenzyl)thiazol-2-yl)-2,5-dimethylfuran-3-carboxamide by ELISA relative to wild-type CFTR level; format: cell membranes; details: filed as activator
[12] = system: Cystic fibrosis transmembrane conductance regulator (Homo sapiens), P13569 [R560T]; test: Corrector activity at 3xHA-tagged full-length human CFTR R560T mutant expressed in human CFBE41o- cells assessed as restoration of plasma membrane density of channel in presence of VX-809/N-(5-(4-fluorobenzyl)thiazol-2-yl)-2,5-dimethylfuran-3-carboxamide by ELISA; format: cell membranes
[13] = system: Cystic fibrosis transmembrane conductance regulator (Homo sapiens), P13569 [S13F]; test: Corrector activity at 3xHA-tagged full-length human CFTR S13F mutant expressed in human CFBE41o- cells assessed as restoration of plasma membrane density of channel in presence of N-(5-(4-fluorobenzyl)thiazol-2-yl)-2,5-dimethylfuran-3-carboxamide incubated for 24 hrs by ELISA; format: cell membranes; details: filed as activator
[14] = system: Cystic fibrosis transmembrane conductance regulator (Homo sapiens), P13569 [S13F]; test: Corrector activity at 3xHA-tagged full-length human CFTR S13F mutant expressed in human CFBE41o- cells assessed as restoration of plasma membrane density of channel in presence of VX-809 incubated for 24 hrs by ELISA; format: cell membranes; details: filed as activator
[15] = system: Cystic fibrosis transmembrane conductance regulator (Homo sapiens), P13569 [S13F]; test: Corrector activity at 3xHA-tagged full-length human CFTR S13F mutant expressed in human CFBE41o- cells assessed as restoration of plasma membrane density of channel in presence of VX-661 incubated for 24 hrs by ELISA; format: cell membranes; details: filed as activator
[16] = system: Cystic fibrosis transmembrane conductance regulator (Homo sapiens), P13569 [S492F]; test: Corrector activity at 3xHA-tagged full-length human CFTR S492F mutant expressed in human CFBE41o- cells assessed as restoration of plasma membrane density of channel in presence of N-(5-(4-fluorobenzyl)thiazol-2-yl)-2,5-dimethylfuran-3-carboxamide incubated for 24 hrs by ELISA; format: cell membranes; details: filed as activator
[17] = system: Cystic fibrosis transmembrane conductance regulator (Homo sapiens), P13569 [S492F]; test: Corrector activity at 3xHA-tagged full-length human CFTR S492F mutant expressed in human CFBE41o- cells assessed as restoration of plasma membrane density of channel in presence of VX-809 incubated for 24 hrs by ELISA; format: cell membranes; details: filed as activator
[18] = system: Cystic fibrosis transmembrane conductance regulator (Homo sapiens), P13569 [S492F]; test: Corrector activity at 3xHA-tagged full-length human CFTR S492F mutant expressed in human CFBE41o- cells assessed as restoration of plasma membrane density of channel in presence of VX-661 incubated for 24 hrs by ELISA; format: cell membranes; details: filed as activator
[19] = system: Cystic fibrosis transmembrane conductance regulator (Homo sapiens), P13569 [F508del]; test: Corrector activity at 3xHA-tagged full-length human CFTR F508del mutant expressed in human CFBE41o- cells assessed as restoration of plasma membrane density of channel in presence of N-(5-(4-fluorobenzyl)thiazol-2-yl)-2,5-dimethylfuran-3-carboxamide incubated for 24 hrs by ELISA; format: cell membranes; details: filed as activator
[20] = system: Cystic fibrosis transmembrane conductance regulator (Homo sapiens), P13569 [F508del]; test: Corrector activity at 3xHA-tagged full-length human CFTR F508del mutant expressed in human CFBE41o- cells assessed as restoration of plasma membrane density of channel incubated for 24 hrs in presence of VX-809 by ELISA; format: cell membranes; details: filed as activator
[21] = system: Cystic fibrosis transmembrane conductance regulator (Homo sapiens), P13569 [F508del]; test: Corrector activity at 3xHA-tagged full-length human CFTR F508del mutant expressed in human CFBE41o- cells assessed as restoration of plasma membrane density of channel incubated for 24 hrs in presence of VX-661 by ELISA; format: cell membranes; details: filed as activator
[22] = system: Cystic fibrosis transmembrane conductance regulator (Homo sapiens), P13569 [S13F]; test: Corrector activity at 3xHA-tagged full-length human CFTR S13F mutant expressed in human CFBE41o- cells assessed as restoration of plasma membrane density of channel incubated for 24 hrs in presence of VX-445 by ELISA; format: cell membranes
[23] = system: Cystic fibrosis transmembrane conductance regulator (Homo sapiens), P13569 [S492F]; test: Corrector activity at 3xHA-tagged full-length human CFTR S492F mutant expressed in human CFBE41o- cells assessed as restoration of plasma membrane density of channel incubated for 24 hrs in presence of VX-445 by ELISA; format: cell membranes
[24] = system: Cystic fibrosis transmembrane conductance regulator (Homo sapiens), P13569 [F508del]; test: Corrector activity at 3xHA-tagged full-length human CFTR F508del mutant expressed in human CFBE41o- cells assessed as restoration of plasma membrane density of channel incubated for 24 hrs in presence of VX-445 by ELISA; format: cell membranes
[25] = system: Cystic fibrosis transmembrane conductance regulator (Homo sapiens), P13569 [S13F]; test: Corrector activity at 3xHA-tagged full-length human CFTR S13F mutant expressed in human CFBE41o- cells assessed as restoration of plasma membrane density of channel at 10 uM incubated for 24 hrs in presence of VX-445 by ELISA; format: cell membranes
[26] = system: Cystic fibrosis transmembrane conductance regulator (Homo sapiens), P13569 [S492F]; test: Corrector activity at 3xHA-tagged full-length human CFTR S492F mutant expressed in human CFBE41o- cells assessed as restoration of plasma membrane density of channel at 10 uM incubated for 24 hrs in presence of VX-661/VX-445 by ELISA; format: cell membranes; details: filed as activator
[27] = system: Cystic fibrosis transmembrane conductance regulator (Homo sapiens), P13569 [F508del]; test: Corrector activity at 3xHA-tagged full-length human CFTR F508del mutant expressed in human CFBE41o- cells assessed as restoration of plasma membrane density of channel at 10 uM incubated for 24 hrs in presence of VX-661/VX-445 by ELISA; format: cell membranes; details: filed as activator
[28] = system: Cystic fibrosis transmembrane conductance regulator (Homo sapiens), P13569 [S492F]; test: as §2, with “S492F” for “F508del”, “current at 10 uM” for “current”, “method” for “method relative to wild-type CFTR activity”; format: cell-based; details: filed as activator
[29] = system: Cystic fibrosis transmembrane conductance regulator (Homo sapiens), P13569 [F508del]; test: (§3) Corrector activity at 3xHA-tagged full-length human CFTR F508del mutant expressed in human CFBE41o- cells assessed as restoration of plasma membrane density of channel at 10 uM incubated for 24 hrs in presence of VX-809/1-(4-chlorophenyl)-N-(1-(4-methyl-6-oxo-1,6-dihydropyrimidin-2-yl)-3-(thiophen-2-yl)-1H-pyrazol-5-yl)cyclopentane-1-carboxamide by immunoblot analysis relative to wild-type CFTR level; format: cell membranes; details: filed as activator
[30] = system: Cystic fibrosis transmembrane conductance regulator (Homo sapiens), P13569 [F508del]; test: as §3, with “densitometry” for “immunoblot analysis”; format: cell membranes; details: filed as activator
[31] = system: Cystic fibrosis transmembrane conductance regulator (Homo sapiens), P13569 [F508del]; test: as §3, with “ELISA” for “immunoblot analysis”; format: cell membranes; details: filed as activator
[32] = system: Cystic fibrosis transmembrane conductance regulator (Homo sapiens), P13569 [F508del]; test: Corrector activity at 3xHA-tagged full-length human CFTR F508del mutant expressed in human CFBE41o- cells assessed as restoration of channel function in presence of VX-809/1-(4-chlorophenyl)-N-(1-(4-methyl-6-oxo-1,6-dihydropyrimidin-2-yl)-3-(thiophen-2-yl)-1H-pyrazol-5-yl)cyclopentane-1-carboxamide relative to wild-type CFTR activity; format: cell-based; details: filed as activator
[33] = system: Cystic fibrosis transmembrane conductance regulator (Homo sapiens), P13569 [F508del]; test: Corrector activity at 3xHA-tagged full-length human CFTR F508del mutant expressed in human CFBE41o- cells assessed as restoration of plasma membrane density of channel at 10 uM incubated for 24 hrs in presence of VX-809/N-(5-(4-fluorobenzyl)thiazol-2-yl)-2,5-dimethylfuran-3-carboxamide by ELISA relative to wild-type CFTR level; format: cell membranes; details: filed as activator

Sequence of Cystic fibrosis transmembrane conductance regulator (Homo sapiens), P13569 [S492F] (P13569 whole entry S492F): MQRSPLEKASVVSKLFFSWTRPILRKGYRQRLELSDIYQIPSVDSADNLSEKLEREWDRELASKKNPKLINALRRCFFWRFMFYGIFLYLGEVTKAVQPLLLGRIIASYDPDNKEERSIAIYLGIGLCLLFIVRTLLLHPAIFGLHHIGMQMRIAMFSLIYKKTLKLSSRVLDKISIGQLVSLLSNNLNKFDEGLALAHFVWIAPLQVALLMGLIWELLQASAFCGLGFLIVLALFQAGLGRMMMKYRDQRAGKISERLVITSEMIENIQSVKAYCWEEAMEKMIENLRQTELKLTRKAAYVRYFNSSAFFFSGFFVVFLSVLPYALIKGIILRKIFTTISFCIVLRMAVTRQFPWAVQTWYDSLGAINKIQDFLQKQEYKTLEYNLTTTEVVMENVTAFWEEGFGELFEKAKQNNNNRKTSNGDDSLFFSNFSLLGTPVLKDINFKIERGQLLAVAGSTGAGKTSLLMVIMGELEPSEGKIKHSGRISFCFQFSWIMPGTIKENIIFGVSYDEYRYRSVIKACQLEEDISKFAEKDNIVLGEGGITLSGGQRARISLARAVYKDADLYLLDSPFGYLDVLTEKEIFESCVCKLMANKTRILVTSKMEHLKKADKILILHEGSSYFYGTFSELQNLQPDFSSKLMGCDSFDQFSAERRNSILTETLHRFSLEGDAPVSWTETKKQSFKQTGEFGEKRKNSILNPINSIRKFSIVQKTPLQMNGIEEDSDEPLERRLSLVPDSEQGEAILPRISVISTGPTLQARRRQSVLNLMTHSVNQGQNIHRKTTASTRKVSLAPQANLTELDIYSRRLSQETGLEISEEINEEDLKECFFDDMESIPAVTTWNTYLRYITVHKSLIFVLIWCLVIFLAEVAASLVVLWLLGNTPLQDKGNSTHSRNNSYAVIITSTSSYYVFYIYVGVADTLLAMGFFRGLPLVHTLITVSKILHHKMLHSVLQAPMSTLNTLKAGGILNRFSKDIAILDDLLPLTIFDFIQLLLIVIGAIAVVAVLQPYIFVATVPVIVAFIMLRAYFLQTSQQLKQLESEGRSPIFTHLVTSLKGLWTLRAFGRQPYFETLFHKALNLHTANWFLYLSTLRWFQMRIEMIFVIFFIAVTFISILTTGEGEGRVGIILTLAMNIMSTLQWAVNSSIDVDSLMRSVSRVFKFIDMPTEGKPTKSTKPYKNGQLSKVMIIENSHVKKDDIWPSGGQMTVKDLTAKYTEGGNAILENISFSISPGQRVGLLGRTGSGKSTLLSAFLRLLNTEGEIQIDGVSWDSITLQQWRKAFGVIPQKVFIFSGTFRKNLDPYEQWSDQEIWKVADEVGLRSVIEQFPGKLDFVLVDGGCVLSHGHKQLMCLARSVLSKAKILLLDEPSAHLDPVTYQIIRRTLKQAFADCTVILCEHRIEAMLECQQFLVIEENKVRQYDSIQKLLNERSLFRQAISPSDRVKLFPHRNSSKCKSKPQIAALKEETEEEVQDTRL
Sequence of Cystic fibrosis transmembrane conductance regulator (Homo sapiens), P13569 [S13F] (P13569 whole entry S13F): as the sequence (P13569 whole entry S492F) above, with S13F, F492S counted along it
Sequence of Cystic fibrosis transmembrane conductance regulator (Homo sapiens), P13569 [F508del] (P13569 as listed by the source): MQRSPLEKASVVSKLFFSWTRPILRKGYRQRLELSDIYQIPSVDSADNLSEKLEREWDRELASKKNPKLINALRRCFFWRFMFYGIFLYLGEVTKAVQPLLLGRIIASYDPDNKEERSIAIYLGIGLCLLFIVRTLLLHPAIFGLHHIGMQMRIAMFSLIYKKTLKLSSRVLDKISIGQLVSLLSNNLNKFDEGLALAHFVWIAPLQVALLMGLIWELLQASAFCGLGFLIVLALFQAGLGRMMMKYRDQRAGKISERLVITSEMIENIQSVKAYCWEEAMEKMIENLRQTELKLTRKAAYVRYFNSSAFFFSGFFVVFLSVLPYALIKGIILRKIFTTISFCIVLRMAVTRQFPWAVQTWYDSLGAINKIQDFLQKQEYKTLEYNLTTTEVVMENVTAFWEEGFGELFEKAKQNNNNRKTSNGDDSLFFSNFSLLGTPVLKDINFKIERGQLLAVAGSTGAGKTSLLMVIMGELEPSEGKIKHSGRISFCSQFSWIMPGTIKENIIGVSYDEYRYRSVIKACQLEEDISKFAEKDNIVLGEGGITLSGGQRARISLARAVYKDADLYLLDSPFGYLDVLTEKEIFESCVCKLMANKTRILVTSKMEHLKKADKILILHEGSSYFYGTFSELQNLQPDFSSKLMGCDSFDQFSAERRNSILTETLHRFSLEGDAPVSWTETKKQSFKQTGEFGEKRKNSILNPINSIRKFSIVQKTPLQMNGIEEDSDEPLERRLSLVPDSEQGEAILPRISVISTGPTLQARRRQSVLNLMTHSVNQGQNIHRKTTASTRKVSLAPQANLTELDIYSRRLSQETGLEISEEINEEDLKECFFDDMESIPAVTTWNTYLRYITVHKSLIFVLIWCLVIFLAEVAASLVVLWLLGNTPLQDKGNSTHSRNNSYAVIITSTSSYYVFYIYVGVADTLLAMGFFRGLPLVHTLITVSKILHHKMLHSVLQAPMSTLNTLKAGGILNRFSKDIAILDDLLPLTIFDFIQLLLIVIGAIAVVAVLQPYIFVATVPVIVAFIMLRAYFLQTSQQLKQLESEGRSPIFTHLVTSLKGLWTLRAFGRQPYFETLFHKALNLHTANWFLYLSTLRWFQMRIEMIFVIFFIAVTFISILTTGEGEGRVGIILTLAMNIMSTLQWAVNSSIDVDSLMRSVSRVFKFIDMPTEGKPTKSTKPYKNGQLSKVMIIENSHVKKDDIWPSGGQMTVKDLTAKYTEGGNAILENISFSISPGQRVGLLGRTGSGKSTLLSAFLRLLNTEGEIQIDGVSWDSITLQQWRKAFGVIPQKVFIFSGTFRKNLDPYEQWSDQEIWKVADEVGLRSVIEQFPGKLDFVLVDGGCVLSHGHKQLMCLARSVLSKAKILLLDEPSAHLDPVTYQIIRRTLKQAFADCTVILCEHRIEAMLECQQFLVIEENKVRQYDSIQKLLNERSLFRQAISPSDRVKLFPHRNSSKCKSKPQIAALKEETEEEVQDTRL
Sequence of Cystic fibrosis transmembrane conductance regulator (Homo sapiens), P13569 [N1303K] (P13569 whole entry N1303K): as the sequence (P13569 whole entry S492F) above, with F492S, N1303K counted along it
Sequence of Cystic fibrosis transmembrane conductance regulator (Homo sapiens), P13569 [R560T] (P13569 whole entry R560T): as the sequence (P13569 whole entry S492F) above, with F492S, R560T counted along it
Sequence of Cystic fibrosis transmembrane conductance regulator (P13569 as listed by the source): as the sequence (P13569 as listed by the source) above
Sequence of Cystic fibrosis transmembrane conductance regulator (Homo sapiens), P13569 [M1101K] (P13569 whole entry M1101K): as the sequence (P13569 whole entry S492F) above, with F492S, M1101K counted along it

With O=C(Nc1cc(-c2cccs2)nn1-c1nc2c(c(=O)[nH]1)CCCC2)C1(c2ccc(Cl)cc2)CCCC1 the Activity [1] was “Dose-Dependent Effect”, the EC50 [2] was 3.05 µM and the Activity [3] was 250%. It also gave an Activity [4] of 80%, an Activity [5] of 84% and an Activity [6] of -14%. For the same compound, the Activity [7] was 50%, the Activity [8] was “Active” and the Activity [9] was “Active”. The Activity [10] was 15%, the Activity [11] was 15% and the Activity [12] was “inactive”. The Activity [13] was “Active”, the Activity [14] was “Active” and the Activity [15] was “Active”. For the same compound, the Activity [16] was “Active”, the Activity [17] was “Active” and the Activity [18] was “Active”. The Activity [19] was “Active”, the Activity [20] was “Active” and the Activity [21] was “Active”. The Activity [22] was “inactive”, the Activity [23] was “inactive” and the Activity [24] was “inactive”. For the same compound, the Activity [25] was “inactive”, the Activity [26] was “Active” and the Activity [27] was “Active”. For the same compound, the Activity [28] was “Active”.
An Activity [29] of 100%, an Activity [30] of 100% and an Activity [31] of 100% were found for Cc1cc(C(=O)Nc2ncc(Cc3ccc(F)cc3)s2)c(C)o1 in this work. The Activity [32] was 50%.
An Activity [33] of 102% was found for Cc1nc(-n2nc(-c3ccccc3)cc2NC(=O)C2(c3ccc(Cl)cc3)CCCC2)[nH]c(=O)c1C in this work.

Source: ChEMBL document CHEMBL5576150, “Synthesis and Biological Evaluation of Pyrazole-Pyrimidones as a New Class of Correctors of the Cystic Fibrosis Transmembrane Conductance Regulator (CFTR)” (J Med Chem, 2024)
